Source: US8748486B2, “Inhibitors of yeast filamentous growth and method of their manufacture” (priority 2003, dated 2014)

Assays:
C. albicans = conditions: cited from earlier work
[1] = tested on: C. albicans strain CAI4 (ATCC MYA-684); test: in vitro bioassay of inhibitory activity against C. albicans yeast-to-mycelium transition; assay type: cell-based, Candida albicans; conditions: comparison within cis/trans pair, FIG. 2
Procedure: An in vitro bioassay of the inhibitory activity of the fatty acids of FIG. 2 against C. albicans yeast-to-mycelium transition was carried out.
C. albicans strain CAI4 (ATCC MYA-684) was incubated at 28° C. for 24 h with shaking in a glucose salts (GS) medium (5 g of glucose, 0.26 g of Na2HPO4.12H2O, 0.66 g of KH2PO4, 0.88 g of MgSO4.7H2O, 0.33 g of NH4Cl, 16 μg of biotin per liter) supplemented with 0.1 mg/ml of uridine.
All the C. albicans cells remained, in the yeast form under these conditions. The yeast cells were washed three times with GS medium before use and then were dispersed in GS medium to give a solution with a final OD600 of 1.0.
The test compounds set out in FIG. 2 were diluted to the indicated concentrations with GS medium and were added to 100 μl of the washed C. albicans culture in 96-well microtitre plates, mixed and incubated at 37° C. for 6 hours (h).
The percentages of yeast cells and germ tubes (filamentous form) were determined microscopically by counting about 300 cells from three replicates. Inhibitory activity was defined as the mole concentration that gave a minimum of 90% inhibition (IC90) relative to control.

C. albicans strain CAI4 [2] = test: yeast-to-mycelium conversion of a C. albicans culture at 37° C. with or without DSF; assay type: cell-based, Candida albicans
Procedure: (§1) A starter culture of C. albicans strain CAI4 was prepared by growing the fungus at a low temperature (28° C.) in GS medium to maintain the yeast cell morphology. […] The synthetic DSF was indistinguishable with the natural DSF in inhibition of germ tube formation.

C. albicans strain CAI4 [3] = test: toxic effect on yeast cell growth; assay type: cell-based, Candida albicans; conditions: for toxic effect on yeast cell growth: concentrations up to 1 mM
Procedure: as §1

Structure (SMILES): C=C(C)C1CC=C(C)C(=O)C1 (stereo not shown) [Carvone]
- formation of filamentous structures of C. albicans (C. albicans): interfere with the formation of filamentous structures

Structure (SMILES): CC(C)CCCCCCC/C=C\C(=O)O [Compound 1, cis-11-methyl-2-dodecenoic acid]
- inhibitory activity of cis- and trans-isomer pairs compared [1]: identical inhibitory activity
- yeast-to-mycelium transition (C. albicans strain CAI4 [2]; 30 μM, 37° C., within 6 hours, GS medium): completely abolished
- yeast-to-mycelium transition of a culture of Candida albicans (C. albicans strain CAI4 [2]; FIGS. 3a and 3b): inhibits
- inhibition of germ tube formation compared with the natural DSF (C. albicans strain CAI4 [2]; synthetic versus natural DSF): indistinguishable
- effect on yeast growth (C. albicans strain CAI4 [3]; FIGS. 3a and 3b): does not affect yeast growth
- toxic effect on yeast cell growth (C. albicans strain CAI4 [3]): not observed to have a toxic effect
- toxic effect on yeast cell growth (C. albicans strain CAI4 [3]; listed as DSF): No toxic effect

Structure (SMILES): CC(C)CCCCCCC/C=C/C(=O)O [Compound 2, trans-11-methyl-2-dodecenoic acid]
- inhibitory activity of cis- and trans-isomer pairs compared [1]: identical inhibitory activity

Structure (SMILES): CC(C)=CCCC(C)=CCCC(C)=CC(=O)O [Compound 3, 3,7,11-trimethyl-2,6,10-dodecatrienoic acid]
- C. albicans germ tube (mycelium) formation (C. albicans): inhibits

Structure (SMILES): CCCCCCCCC/C=C\C(=O)O [Compound 7, cis-2-dodecenoic acid]
- inhibitory activity of cis- and trans-isomer pairs compared [1]: very similar or identical inhibitory activity

Structure (SMILES): CC(C)=CCCC(C)=CCCC(C)=CCO [Farnesol]
- mycelial development of C. albicans (C. albicans; growth morphology assay and differentiation assay, activators L-proline, N-acetylglucosamine, serum): prevent mycelial development

Structure (SMILES): C=C(C)C1CC=C(C=O)CC1 (stereo not shown) [perillaldehyde]
- formation of filamentous structures of C. albicans (C. albicans): interfere with the formation of filamentous structures
